Experimental data taken from US20040087561A1, “Treatment of sexual dysfunction” (priority 2000, published 2004).

Assays:
[1] = test system: ovariectomised female Sprague Dawley rats; assay: Inhibition of female rat sexual proceptivity by NMB and its antagonism; assay type: in vivo; conditions: pre-treatment 15 mg/kg i.p. 1 h before NMB 100 ng i.c.v.; progesterone-treated rats; blockade not total
Description: Ovariectomised female rats (Sprague Dawley, obtained from Charles River, UK) were stereotaxically implanted (coordinates 0.89 mm behind Bregma, 1.3 mm lateral and 2.5 mm vertical) with stainless steel cannulae (6 mm long, O.D. 0.75 mm), held in place with dental cement. Animals were housed in groups of three and returned to a reversed lighting system of 12 h light:dark (lights off 5.00-17.00 h). Correct placement of the cannulae was assessed post-mortem. Rats were used for tests two weeks after ovariectomy (one week after cannulation). The experiments started at least 5 h into the dark period. Forty eight hours before tests, the animals were primed with 5 μg oestradiol benzoate (OB) (s.c, in corn oil) and adapted to the apparatus (in the absence of stimuli animals) for 10 min on 2 consecutive days prior testing. The 10 min test was carried out as previously described. The difference in the percentage of time spent investigating male minus female was calculated, out of the total time spent investigating stimuli.
Progesterone (Prog, 0.5 mg/0.1 ml) was dissolved in corn oil and administered subcutaneously (s.c.), 4 h before test, to induce proceptive behaviour. Compound (1) (15 mg/kg, i.p.) was dissolved in 50% 2-hydroxypropyl-β-cyclodextrin in saline and administered 1 h before the i.c.v. administration. Neuromedin B was obtained from Bachem, UK. It was dissolved in isotonic saline and administered i.c.v. over a 30 sec period, with the aid of a pump set to deliver a flow of 10 μl/min, 10 min before tests. The dosing volume was 5 μl/rat. Each rat received a total amount of 100 ng.
From the present study we can conclude that stimulation of BB1 receptors with an agonist results in inhibition of proceptive behaviour. This inhibitory effect may be prevented by the presence of an antagonist. e.g. Compound (1) In FIG. 5 the bars represent percentage of time spent investigating male, minus the percentage of time spent investigating the female stimuli+SEM, (n=8-12 per group). ***P<0.001 vs progesterone (One-way ANOVA followed by Dunnett's test).

[2] = test system: Female New Zealand rabbits; assay: Pelvic nerve-stimulated female genital blood flow, anaesthetised rabbit model of sexual arousal; assay type: in vivo; conditions: 15 mg/kg sc
Description: Female New Zealand rabbits (2.5 kg) were pre-medicated with a combination of Medetomidine (Domitor®) 0.5 ml/kg im., and Ketamine (Vetalar®) 0.25 ml/kg i.m. whilst maintaining oxygen intake via a face mask. The rabbits were tracheotomised using a Portex™ uncuffed endotracheal tube 3 ID., connected to ventilator and maintained at a ventilation rate of 30-40 breaths per minute, with an approximate tidal volume of 18-20 ml, and a maximum airway pressure of 10 cm H2O. Anaesthesia was then switched to Isoflurane and ventilation continued with O2 at 2 l/min. The right marginal ear vein was cannulated using a 23G or 24G catheter, and Lactated Ringer solution perfused at 0.5 ml/min. The rabbit was maintained at 3% Isoflurane during invasive surgery, dropping to 2% for maintenance anaesthesia.
The left groin area of the rabbit was shaved and a vertical incision was made approximately 5 cm in length along the thigh. […] Systolic and diastolic pressures were measured, and the mean arterial pressure calculated using the formula (diastolic ×2+systolic)÷3. Heart rate was measured via the pulse oxymeter and Po-ne-mah data acquisition software system (Ponemah Physiology Platform, Gould Instrument Systems Inc). […] A frequency response curve was determined at the start of each experiment in order to determine the optimum frequency to use as a sub-maximal response, normally 4 Hz. […]

Compound: COc1ccc(C2(CNC(=O)[C@](C)(Cc3c[nH]c4ccccc34)NC(=O)Nc3ccc([N+](=O)[O-])cc3)CCCCC2)nc1 [Compound (1), (S) 3-(1H-Indol-3-yl)-N-[1-(5-methoxy-pyridin-2-yl)-cyclohexyl-methyl]-2-methyl-2-[3-(4-nitro-phenyl)-ureido]-propionamide]
- antagonism of the inhibitory effect of NMB on proceptivity [1]: prevented the inhibitory effect of NMB
- pelvic-nerve stimulated (PNS) increases in genital (vaginal and clitoral) blood flow [2]: potent enhancer
